Tests used:
[1] = target: Cyclin-dependent kinase 16 (Homo sapiens) (UniProt Q00536)
[2] = target: Mitogen-activated protein kinase 3 (Homo sapiens, UniProt P27361)
[3] = target: Serine/threonine-protein kinase pim-1 (Homo sapiens) (UniProt P11309)
[4] = target: T1, Mitogen-activated protein kinase kinase kinase 5 (Homo sapiens) (UniProt Q99683)
T1 sequence (whole entry): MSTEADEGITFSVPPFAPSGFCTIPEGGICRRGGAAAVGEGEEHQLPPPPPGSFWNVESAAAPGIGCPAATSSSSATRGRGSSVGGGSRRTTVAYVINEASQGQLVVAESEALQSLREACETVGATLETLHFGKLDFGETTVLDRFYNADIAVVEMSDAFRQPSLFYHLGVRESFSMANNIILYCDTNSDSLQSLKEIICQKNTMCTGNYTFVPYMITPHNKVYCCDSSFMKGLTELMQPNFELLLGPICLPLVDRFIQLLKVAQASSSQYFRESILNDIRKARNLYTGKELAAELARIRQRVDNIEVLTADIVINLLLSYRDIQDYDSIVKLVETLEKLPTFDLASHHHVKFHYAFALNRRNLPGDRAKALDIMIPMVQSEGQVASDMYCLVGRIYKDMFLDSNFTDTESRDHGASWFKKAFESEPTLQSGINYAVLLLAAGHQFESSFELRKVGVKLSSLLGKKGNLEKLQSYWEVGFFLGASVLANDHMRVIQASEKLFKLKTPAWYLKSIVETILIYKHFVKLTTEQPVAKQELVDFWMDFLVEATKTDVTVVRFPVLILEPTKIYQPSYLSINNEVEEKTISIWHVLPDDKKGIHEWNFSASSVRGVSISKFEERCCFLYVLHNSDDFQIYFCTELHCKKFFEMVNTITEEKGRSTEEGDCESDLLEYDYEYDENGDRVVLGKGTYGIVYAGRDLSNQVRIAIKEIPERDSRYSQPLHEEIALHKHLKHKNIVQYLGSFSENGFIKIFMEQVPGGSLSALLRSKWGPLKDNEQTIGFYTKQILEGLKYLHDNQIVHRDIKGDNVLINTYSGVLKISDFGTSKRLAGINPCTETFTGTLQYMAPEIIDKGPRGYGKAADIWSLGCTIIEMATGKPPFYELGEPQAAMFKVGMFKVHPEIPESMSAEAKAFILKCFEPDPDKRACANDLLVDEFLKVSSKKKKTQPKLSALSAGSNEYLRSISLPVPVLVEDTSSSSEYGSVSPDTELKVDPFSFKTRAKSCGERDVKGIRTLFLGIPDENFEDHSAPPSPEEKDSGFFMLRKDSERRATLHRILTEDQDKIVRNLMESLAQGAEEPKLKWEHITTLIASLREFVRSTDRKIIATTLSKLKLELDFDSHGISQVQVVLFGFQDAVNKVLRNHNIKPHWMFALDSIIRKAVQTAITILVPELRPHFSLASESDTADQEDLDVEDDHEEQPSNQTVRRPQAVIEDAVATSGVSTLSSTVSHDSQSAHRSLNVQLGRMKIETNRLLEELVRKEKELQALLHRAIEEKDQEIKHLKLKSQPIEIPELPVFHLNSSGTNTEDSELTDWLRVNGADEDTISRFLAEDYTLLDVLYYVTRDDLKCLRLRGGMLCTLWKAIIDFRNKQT

[5] = target: Serine/threonine-protein kinase PAK 5 (Homo sapiens) (UniProt Q9P286)
Sequence of Serine/threonine-protein kinase PAK 5 (Homo sapiens) (Q9P286 whole entry, looked up): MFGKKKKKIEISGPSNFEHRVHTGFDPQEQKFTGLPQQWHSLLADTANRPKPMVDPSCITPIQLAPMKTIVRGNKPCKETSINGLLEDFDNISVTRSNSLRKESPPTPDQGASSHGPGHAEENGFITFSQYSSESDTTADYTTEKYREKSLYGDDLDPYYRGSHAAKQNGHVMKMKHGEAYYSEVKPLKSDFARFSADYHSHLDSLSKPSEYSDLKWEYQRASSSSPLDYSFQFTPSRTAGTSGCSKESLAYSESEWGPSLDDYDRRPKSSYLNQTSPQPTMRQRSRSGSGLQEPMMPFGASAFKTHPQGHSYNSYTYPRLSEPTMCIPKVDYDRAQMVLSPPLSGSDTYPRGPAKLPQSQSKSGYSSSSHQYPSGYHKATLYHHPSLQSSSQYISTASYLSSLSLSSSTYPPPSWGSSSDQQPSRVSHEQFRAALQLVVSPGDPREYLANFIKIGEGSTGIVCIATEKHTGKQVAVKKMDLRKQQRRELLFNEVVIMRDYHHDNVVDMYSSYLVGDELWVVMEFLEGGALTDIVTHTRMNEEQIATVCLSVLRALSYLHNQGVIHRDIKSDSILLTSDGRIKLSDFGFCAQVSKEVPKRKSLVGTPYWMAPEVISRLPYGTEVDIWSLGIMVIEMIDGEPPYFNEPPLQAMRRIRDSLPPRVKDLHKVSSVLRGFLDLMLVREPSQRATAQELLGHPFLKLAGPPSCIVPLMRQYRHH

[6] = target: Cyclin-dependent kinase 6 (Homo sapiens) (UniProt Q00534)
Sequence of Cyclin-dependent kinase 6 (Homo sapiens) (Q00534 whole entry): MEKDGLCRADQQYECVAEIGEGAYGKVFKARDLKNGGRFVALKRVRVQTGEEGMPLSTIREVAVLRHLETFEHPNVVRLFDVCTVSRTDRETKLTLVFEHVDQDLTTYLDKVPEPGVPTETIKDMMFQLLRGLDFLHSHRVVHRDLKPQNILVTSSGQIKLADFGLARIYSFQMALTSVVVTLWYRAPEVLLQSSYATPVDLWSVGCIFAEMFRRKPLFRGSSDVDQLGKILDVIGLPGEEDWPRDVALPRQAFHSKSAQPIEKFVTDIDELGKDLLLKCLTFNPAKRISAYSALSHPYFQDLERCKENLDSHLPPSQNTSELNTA

[7] = target: Serine/threonine-protein kinase PAK 4 (Homo sapiens) (UniProt O96013)
Sequence of Serine/threonine-protein kinase PAK 4 (Homo sapiens) (O96013 whole entry, looked up): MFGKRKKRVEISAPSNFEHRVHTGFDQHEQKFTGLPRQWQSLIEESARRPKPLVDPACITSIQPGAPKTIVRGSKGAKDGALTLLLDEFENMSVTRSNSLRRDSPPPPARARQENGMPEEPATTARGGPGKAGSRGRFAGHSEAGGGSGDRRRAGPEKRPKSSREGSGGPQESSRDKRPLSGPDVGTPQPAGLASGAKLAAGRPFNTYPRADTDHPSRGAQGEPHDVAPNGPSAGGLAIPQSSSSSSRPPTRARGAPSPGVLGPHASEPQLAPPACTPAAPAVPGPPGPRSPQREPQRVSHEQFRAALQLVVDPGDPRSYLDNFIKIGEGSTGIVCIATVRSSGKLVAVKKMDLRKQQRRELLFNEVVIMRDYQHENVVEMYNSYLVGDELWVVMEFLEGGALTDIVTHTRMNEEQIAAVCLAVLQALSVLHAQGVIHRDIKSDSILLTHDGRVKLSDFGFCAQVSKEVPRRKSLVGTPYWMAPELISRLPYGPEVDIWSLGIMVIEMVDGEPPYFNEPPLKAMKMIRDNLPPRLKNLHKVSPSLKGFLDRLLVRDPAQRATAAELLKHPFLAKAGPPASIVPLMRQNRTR

[8] = target: T2, Serine/threonine-protein kinase VRK1 (Homo sapiens) (UniProt Q99986)
T2 sequence (whole entry): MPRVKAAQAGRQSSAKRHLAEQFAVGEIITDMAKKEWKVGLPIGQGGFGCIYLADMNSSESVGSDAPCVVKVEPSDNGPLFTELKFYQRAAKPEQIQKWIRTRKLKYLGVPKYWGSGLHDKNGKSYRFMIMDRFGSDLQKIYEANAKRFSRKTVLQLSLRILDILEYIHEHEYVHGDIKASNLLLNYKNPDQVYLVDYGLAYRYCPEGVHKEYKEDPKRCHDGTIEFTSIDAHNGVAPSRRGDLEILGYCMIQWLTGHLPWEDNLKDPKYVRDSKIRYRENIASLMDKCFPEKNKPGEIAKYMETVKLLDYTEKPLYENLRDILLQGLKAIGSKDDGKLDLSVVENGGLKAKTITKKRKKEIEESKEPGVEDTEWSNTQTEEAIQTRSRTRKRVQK

[9] = target: Tyrosine-protein kinase JAK1 (Homo sapiens) (UniProt P23458)
[10] = target: Ribosomal protein S6 kinase alpha-3 (Homo sapiens) (UniProt P51812)
Sequence of Ribosomal protein S6 kinase alpha-3 (Homo sapiens) (P51812 whole entry, canonical isoform): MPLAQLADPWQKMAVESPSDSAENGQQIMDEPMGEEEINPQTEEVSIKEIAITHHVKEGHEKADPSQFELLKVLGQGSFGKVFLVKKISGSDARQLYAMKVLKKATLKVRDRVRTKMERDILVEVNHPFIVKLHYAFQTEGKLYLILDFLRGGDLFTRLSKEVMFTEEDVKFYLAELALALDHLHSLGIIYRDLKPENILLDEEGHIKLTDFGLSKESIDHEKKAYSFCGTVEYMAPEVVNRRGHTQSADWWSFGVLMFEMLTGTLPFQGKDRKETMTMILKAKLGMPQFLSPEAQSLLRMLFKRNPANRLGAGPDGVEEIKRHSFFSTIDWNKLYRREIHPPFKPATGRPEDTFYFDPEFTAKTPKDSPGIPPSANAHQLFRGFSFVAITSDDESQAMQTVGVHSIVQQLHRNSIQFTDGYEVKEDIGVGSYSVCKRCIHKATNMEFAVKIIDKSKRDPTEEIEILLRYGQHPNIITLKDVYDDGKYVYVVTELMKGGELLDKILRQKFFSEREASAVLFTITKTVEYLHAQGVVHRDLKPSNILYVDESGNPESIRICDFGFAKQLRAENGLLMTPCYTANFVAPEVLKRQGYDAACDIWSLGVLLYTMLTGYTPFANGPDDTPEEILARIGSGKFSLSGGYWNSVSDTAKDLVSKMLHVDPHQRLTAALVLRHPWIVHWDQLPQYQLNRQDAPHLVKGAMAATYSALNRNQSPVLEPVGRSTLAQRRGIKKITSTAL

[11] = target: Casein kinase I isoform gamma-2 (Homo sapiens) (UniProt P78368)
Sequence of Casein kinase I isoform gamma-2 (Homo sapiens) (P78368 whole entry, looked up, canonical isoform): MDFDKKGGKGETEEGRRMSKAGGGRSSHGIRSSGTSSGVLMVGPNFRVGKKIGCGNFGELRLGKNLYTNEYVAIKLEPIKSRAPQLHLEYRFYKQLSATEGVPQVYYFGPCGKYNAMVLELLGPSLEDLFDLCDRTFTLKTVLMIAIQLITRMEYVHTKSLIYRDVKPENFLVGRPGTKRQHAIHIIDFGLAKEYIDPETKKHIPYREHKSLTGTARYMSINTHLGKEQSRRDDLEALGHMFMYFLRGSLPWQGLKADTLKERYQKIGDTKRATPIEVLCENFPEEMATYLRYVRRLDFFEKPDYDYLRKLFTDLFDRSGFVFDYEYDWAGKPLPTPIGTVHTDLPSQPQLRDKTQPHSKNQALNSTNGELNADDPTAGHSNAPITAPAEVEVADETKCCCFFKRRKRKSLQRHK

[12] = target: Mitogen-activated protein kinase 6 (Homo sapiens) (UniProt Q16659)
[13] = target: Serine/threonine-protein kinase OSR1 (Homo sapiens) (UniProt O95747)
Sequence of Serine/threonine-protein kinase OSR1 (Homo sapiens) (O95747 2-527 limits assumed): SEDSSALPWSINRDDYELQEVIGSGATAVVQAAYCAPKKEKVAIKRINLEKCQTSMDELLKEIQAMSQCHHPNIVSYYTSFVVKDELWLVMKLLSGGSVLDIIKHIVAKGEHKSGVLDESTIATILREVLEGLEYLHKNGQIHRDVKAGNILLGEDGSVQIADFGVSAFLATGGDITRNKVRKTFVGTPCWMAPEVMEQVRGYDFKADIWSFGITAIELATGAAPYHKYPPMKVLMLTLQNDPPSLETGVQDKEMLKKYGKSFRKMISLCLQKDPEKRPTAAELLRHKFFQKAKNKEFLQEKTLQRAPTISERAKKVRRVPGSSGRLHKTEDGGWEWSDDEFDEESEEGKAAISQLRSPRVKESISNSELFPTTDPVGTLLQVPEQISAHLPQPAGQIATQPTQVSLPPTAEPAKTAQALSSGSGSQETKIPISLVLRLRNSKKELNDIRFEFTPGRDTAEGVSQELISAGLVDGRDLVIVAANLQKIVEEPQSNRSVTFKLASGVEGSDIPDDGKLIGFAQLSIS

[14] = target: Serine/threonine-protein kinase 10 (Homo sapiens) (UniProt O94804)
[15] = target: Calcium/calmodulin-dependent protein kinase type 1D (Homo sapiens) (UniProt Q8IU85)
Sequence of Calcium/calmodulin-dependent protein kinase type 1D (Homo sapiens) (Q8IU85 whole entry, looked up): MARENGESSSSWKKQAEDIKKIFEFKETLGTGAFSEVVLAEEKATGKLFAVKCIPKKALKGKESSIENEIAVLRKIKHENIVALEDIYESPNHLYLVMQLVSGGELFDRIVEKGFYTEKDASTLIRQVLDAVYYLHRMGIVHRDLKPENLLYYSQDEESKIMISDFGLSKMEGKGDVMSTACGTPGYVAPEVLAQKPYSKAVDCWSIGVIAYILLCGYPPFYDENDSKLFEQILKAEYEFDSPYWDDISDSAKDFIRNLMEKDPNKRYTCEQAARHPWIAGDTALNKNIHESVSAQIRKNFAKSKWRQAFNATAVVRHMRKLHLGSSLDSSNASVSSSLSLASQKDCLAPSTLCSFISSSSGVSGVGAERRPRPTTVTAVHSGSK

[16] = target: Dual specificity protein kinase CLK1 (Homo sapiens) (UniProt P49759)
[17] = target: Serine/threonine-protein kinase VRK2 (Homo sapiens) (UniProt Q86Y07)
[18] = target: Calcium/calmodulin-dependent protein kinase type II subunit beta (Homo sapiens) (UniProt Q13554)
Sequence of Calcium/calmodulin-dependent protein kinase type II subunit beta (Homo sapiens) (Q13554 whole entry): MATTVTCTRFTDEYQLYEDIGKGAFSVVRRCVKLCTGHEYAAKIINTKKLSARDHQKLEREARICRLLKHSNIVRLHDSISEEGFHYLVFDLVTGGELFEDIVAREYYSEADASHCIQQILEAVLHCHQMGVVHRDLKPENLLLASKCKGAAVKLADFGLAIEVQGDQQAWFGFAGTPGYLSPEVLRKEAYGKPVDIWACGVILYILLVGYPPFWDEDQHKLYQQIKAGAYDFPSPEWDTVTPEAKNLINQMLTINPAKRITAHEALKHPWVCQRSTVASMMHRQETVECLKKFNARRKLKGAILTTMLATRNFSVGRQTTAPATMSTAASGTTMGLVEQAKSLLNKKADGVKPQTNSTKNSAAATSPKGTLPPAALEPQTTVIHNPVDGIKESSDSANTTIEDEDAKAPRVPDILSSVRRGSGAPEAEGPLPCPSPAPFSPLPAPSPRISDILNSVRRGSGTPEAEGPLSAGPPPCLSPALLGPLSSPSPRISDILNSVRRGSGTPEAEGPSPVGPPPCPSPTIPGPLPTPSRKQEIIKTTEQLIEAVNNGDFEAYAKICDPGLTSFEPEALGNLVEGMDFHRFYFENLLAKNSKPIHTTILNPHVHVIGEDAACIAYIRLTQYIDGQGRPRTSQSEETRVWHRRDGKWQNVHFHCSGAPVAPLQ

Sequence of Cyclin-dependent kinase 16 (Homo sapiens) (Q00536 whole entry): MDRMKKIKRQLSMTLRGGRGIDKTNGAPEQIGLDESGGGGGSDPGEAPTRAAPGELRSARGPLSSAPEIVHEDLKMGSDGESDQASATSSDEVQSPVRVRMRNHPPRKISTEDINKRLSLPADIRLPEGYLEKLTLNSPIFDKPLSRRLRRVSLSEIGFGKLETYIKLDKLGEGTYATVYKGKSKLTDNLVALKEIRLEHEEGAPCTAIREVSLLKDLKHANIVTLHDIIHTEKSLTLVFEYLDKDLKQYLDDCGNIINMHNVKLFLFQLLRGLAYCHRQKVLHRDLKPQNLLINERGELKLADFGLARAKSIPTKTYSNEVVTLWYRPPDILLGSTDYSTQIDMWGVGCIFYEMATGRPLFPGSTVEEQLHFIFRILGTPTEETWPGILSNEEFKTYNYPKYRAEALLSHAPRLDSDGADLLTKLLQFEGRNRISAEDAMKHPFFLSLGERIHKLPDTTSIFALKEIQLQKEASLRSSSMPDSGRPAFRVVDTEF

| SMILES | ΔTm [1] [°C] | ΔTm [2] [°C] | ΔTm [3] [°C] | ΔTm [4] [°C] | ΔTm [5] [°C] | ΔTm [6] [°C] | ΔTm [7] [°C] | ΔTm [8] [°C] | ΔTm [9] [°C] | ΔTm [10] [°C] | ΔTm [11] [°C] | ΔTm [12] [°C] | ΔTm [13] [°C] | ΔTm [14] [°C] | ΔTm [15] [°C] | ΔTm [16] [°C] | ΔTm [17] [°C] | ΔTm [18] [°C] |
| --- | --- | --- | --- | --- | --- | --- | --- | --- | --- | --- | --- | --- | --- | --- | --- | --- | --- | --- |
| CCOC(=O)c1c(C)[nH]c(/C=C2\C(=O)Nc3ccccc32)c1C | -0.2 | -0.4 | -0.1 | -1.4 | -0.5 | -5 | 0.9 | -1.7 | 8.5 | 0.1 | 0.4 | -0.1 | -0.1 | 1.6 | 0 | -1.1 | 0.2 | 0.7 |
| NC1=N/C(=C2/CCNC(=O)c3[nH]ccc32)C(=O)N1 [DEBROMOHYMENIALDISINE] | 0 | 0.6 | 0.7 | 4.6 | 0.2 | 0.6 | 0.9 | 1.3 | -0.2 | 6.4 | 3.5 | 0.3 | 0.4 | 1.7 | 0 | 6 | 0.7 | 0.7 |
| O=C1Nc2ccc(S(=O)(=O)O)cc2/C1=C1/Nc2ccccc2/C1=N\O | 5.9 | 2.4 | 3.3 | 3.8 | 2.1 | 2.9 | 2.7 | 0 | 4.3 | 6.1 | 2.5 | 1.1 | 0.1 | 0.5 | 0.7 | 3.9 | 4 | 1.8 |
| CCOC(=O)c1cnc2oc3ccc(O)cc3c2c1-c1ccccc1 | -0.6 | -0.1 | 5.1 | 2.1 | 0.5 | 0.1 | 0.7 | 0.1 | 8.6 | 1 | 1.1 | 0.2 | 1.3 | 2.9 | 0.4 | 6.2 | 0.3 | 0.4 |
| O=c1c(O)c(-c2ccc(O)c(O)c2)oc2cc(O)cc(O)c12 [QUERCETIN] | 1.8 | 1.9 | 8.1 | 3.4 | 0.5 | 1.9 | 2.3 | 1.4 | 8.2 | 6.6 | 2.4 | 0.8 | 7.4 | 5.5 | 2.9 | 7.7 | 2.7 | 2.9 |
| COc1cc(O)c2c(c1)oc(=O)c1c3cc(O)c(O)cc3oc21 [WEDELOLACTONE] | 0.1 | 0.8 | 3.4 | 0.8 | -0.3 | 0.6 | 1.6 | 0 | 2.2 | 1 | 2.7 | 1.5 | 1.9 | 1.3 | 1.1 | 2.6 | 1.2 | 0.7 |
| COc1ccc(S(=O)(=O)N(CCO)c2ccccc2CN(C)C/C=C/c2ccc(Cl)cc2)cc1 | -0.6 | 0.1 | 1.3 | -0.1 | -0.4 | -0.3 | -0.1 | 0 | -0.5 | 0.7 | 0.3 | -0.5 | -0.7 | 0.2 | -0.3 | 0.1 | -0.3 | -1.6 |
| O=c1cc(N2CCOCC2)oc2c1ccc1ccccc12 | -0.4 | 0.2 | 1.7 | 1.2 | 0 | 0.2 | 0.2 | 0 | 0.8 | 0.3 | 0.6 | 0.4 | 0.5 | 0.4 | 0 | 0.8 | -0.1 | 0.3 |
